Laboratory results taken from patent US20090005415A1, “1,2-Diarylimidazoles for Use as Cb1 Modulators” (priority 2005, published 2009).
Structures can show the parent of a compound that is named as a salt.

| SMILES | melting point |
| --- | --- |
| Cc1c(C(=O)NN2CCCCC2)nc(-c2ccc(Cl)cc2Cl)n1-c1ccc(OCc2ccccc2)cc1 (as salt: hydrochloride) [Example 1, 1-(4-Benzyloxy-phenyl)-2-(2,4-dichloro-phenyl)-5-methyl-1H-imidazole-4-carboxylic acid piperidin-1-ylamide] | 195 to 198 °C |
| CCS(=O)(=O)Oc1ccc(-n2c(-c3ccc(Cl)cc3Cl)nc(C(=O)NN3CCCCC3)c2C)cc1 (as salt: hydrochloride) [Example 2, Ethanesulfonic acid 4-[2-(2,4-dichloro-phenyl)-5-methyl-4-(piperidin-1-ylcarbamoyl)-imidazol-1-yl]-phenyl ester] | 94 to 101 °C |
| Cc1c(C(=O)NN2CCCCC2)nc(-c2ccc(Cl)cc2Cl)n1-c1ccc(OS(=O)(=O)CCCC(F)(F)F)cc1 (as salt: hydrochloride) [Example 3, 4,4,4-Trifluoro-butane-1-sulfonic acid 4-[2-(2,4-dichloro-phenyl)-5-methyl-4-(piperidin-1-ylcarbamoyl)-imidazol-1-yl]-phenyl ester] | 113 to 118 °C |
| Cc1c(C(=O)NN2CCCCC2)nc(-c2ccc(Cl)cc2Cl)n1-c1ccc(OS(=O)(=O)c2cccnc2)cc1 (as salt: hydrochloride) [Example 4, Pyridine-3-sulfonic acid 4-[2-(2,4-dichloro-phenyl)-5-methyl-4-(piperidin-1-ylcarbamoyl)-imidazol-1-yl]-phenyl ester] | 205 to 209 °C |

Next, values leading:

| melting point | SMILES |
| --- | --- |
| 112 to 118 °C | Cc1c(C(=O)NN2CCCCC2)nc(-c2ccc(Cl)cc2Cl)n1-c1ccc(OS(=O)(=O)c2ccc(Cl)s2)cc1 (as salt: hydrochloride) [Example 5, 5-Chloro-thiophene-2-sulfonic acid 4-[2-(2,4-dichloro-phenyl)-5-methyl-4-(piperidin-1-ylcarbamoyl)-imidazol-1-yl]-phenyl ester] |
| 152 to 156 °C | Cc1c(C(=O)NN2CCCCC2)nc(-c2ccc(Cl)cc2Cl)n1-c1ccc(OS(=O)(=O)CCC(C)(C)C)cc1 (as salt: hydrochloride) [Example 6, 3,3-Dimethyl-butane-1-sulfonic acid 4-[2-(2,4-dichloro-phenyl)-5-methyl-4-(piperidin-1-ylcarbamoyl)-imidazol-1-yl]-phenyl ester] |
| 107 to 112 °C | Cc1c(C(=O)NN2CCCCC2)nc(-c2ccc(Cl)cc2Cl)n1-c1ccc(OS(=O)(=O)c2cccs2)cc1 (as salt: hydrochloride) [Example 7, Thiophene-2-sulfonic acid 4-[2-(2,4-dichloro-phenyl)-5-methyl-4-(piperidin-1-ylcarbamoyl)-imidazol-1-yl]phenyl ester] |
| 183 to 186 °C | Cc1c(C(=O)NN2CCCCC2)nc(-c2ccc(Cl)cc2Cl)n1-c1ccc(OS(=O)(=O)CCC(F)(F)F)cc1 (as salt: hydrochloride) [Example 8, 3,3,3-Trifluoro-propane-1-sulfonic acid 4-[2-(2,4-dichloro-phenyl)-5-methyl-4-(piperidin-1-ylcarbamoyl)-imidazol-1-yl]-phenyl ester] |
| 126 to 133 °C | CCCS(=O)(=O)Oc1ccc(-n2c(-c3ccc(Cl)cc3Cl)nc(C(=O)NN3CCCCC3)c2C)cc1 (as salt: hydrochloride) [Example 9, Propane-1-sulfonic acid 4-[2-(2,4-dichloro-phenyl)-5-methyl-4-(piperidin-1-ylcarbamoyl)-imidazol-1-yl]-phenyl ester] |
